Test results as given in publication PMC9887005, “Regioselective protein oxidative cleavage enabled by enzyme-like recognition of an inorganic metal oxo cluster ligand” (Nature Communications, 2023).

Biological target: T1, hen egg white lysozyme (HEWL) (Gallus gallus, UniProt P00698)
T1 construct: gene LYZ
Assay: tryptophan fluorescence quenching
Assay type: binding
Details: 10 mM tris-HCl pH 7.5, room temperature; 10 µM HEWL, excitation 295 nm; double-log; fitted together with number of bound quencher molecules n
Text: tryptophan fluorescence quenching on hen egg white lysozyme (HEWL)

T1 sequence (P00698 19-147): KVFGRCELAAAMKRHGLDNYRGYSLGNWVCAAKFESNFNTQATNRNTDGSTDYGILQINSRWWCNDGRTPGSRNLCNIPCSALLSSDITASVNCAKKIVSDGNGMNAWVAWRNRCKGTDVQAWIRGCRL

In the case of Cu^IIWD, the “Ka” value is reported as 6.76e+08 M⁻¹.

For α2WD, the “Ka” value was 6.91e+08 M⁻¹.
